Where two headings read alike, the source gives them in different places.
Tests used:
[1] = tested on: β-alanine aminopeptidase
[2] = tested on: β-alanine aminopeptidase; assay type: cell-based, Ochrobactrum anthropi
[3] = tested on: β-alanine aminopeptidase; details: Pseudomonas stutzeri; 10 strains tested
[4] = tested on: β-alanine aminopeptidase; details: Shigella dysenteriae; 10 strains tested
[5] = tested on: β-alanine aminopeptidase; details: Chryseobacterium indologenes; 10 strains tested
[6] = tested on: β-alanine aminopeptidase; remark: listed apart in the source
[7] = tested on: β-alanine aminopeptidase; remark: listed apart in the source
[8] = tested on: β-alanine aminopeptidase; details: 137 strains tested
[9] = tested on: β-alanine aminopeptidase; assay type: cell-based; details: Shigella flexneri; 10 strains tested
[10] = tested on: β-alanine aminopeptidase; assay type: cell-based; details: Shigella boydii; 10 strains tested
[11] = tested on: β-alanine aminopeptidase; details: Comamonas testoteroni; 10 strains tested
[12] = tested on: β-alanine aminopeptidase; details: Oligella urethralis; 10 strains tested
[13] = tested on: β-alanine aminopeptidase; assay: Two-substrate semi-solid medium (Trypticase Soy agar), colony color; assay type: cell-based; details: agar also contains 6-Chloro-3-indolyl-β-D-glycopyranoside and 3,5-Dihydroxy-2-naphthoic acid, 35-37° C., 18-24 hours
Experimental: The medium was poured out and inoculated as follows: • 10 dishes with pure cultures corresponding to five strains of Pseudomonas aeruginosa and five of Pseudomonas mendocina, and • 2 dishes with a mixture of two strains, one being of Pseudomonas aeruginosa and the other of Pseudomonas mendocina. The Petri dishes were incubated at 35-37° C. After 18-24 hours of incubation, the color of the colonies was recorded.

[14] = tested on: β-alanine aminopeptidase; assay: Vitek 2 cards, broth with β-Alanyl p-nitroanilide; details: Moraxella non liquefaciens; 2 strains tested; read after 19 hours
[15] = tested on: β-alanine aminopeptidase; assay: Vitek 2 cards, broth with β-Alanyl p-nitroanilide; details: Salmonella arizonae; 1 strain tested; read after 19 hours
[16] = tested on: β-alanine aminopeptidase; assay: Vitek 2 cards, broth with β-Alanyl p-nitroanilide; details: Citrobacter freundii; 2 strains tested; read after 19 hours
[17] = tested on: β-alanine aminopeptidase; assay: Vitek 2 cards, broth with β-Alanyl p-nitroanilide; details: Pseudomonas stutzeri; 3 strains tested; read after 19 hours
[18] = tested on: β-alanine aminopeptidase; assay: Vitek 2 cards, broth with β-Alanyl p-nitroanilide; details: Stenotrophomonas maltophilia; 2 strains tested; read after 19 hours
[19] = tested on: β-alanine aminopeptidase; assay: Vitek 2 cards, broth with β-Alanyl p-nitroanilide; details: Aeromonas hydrophila; 2 strains tested; read after 19 hours
[20] = tested on: β-alanine aminopeptidase; assay: Vitek 2 cards, broth with β-Alanyl p-nitroanilide; details: Providencia stuartii; 1 strain tested; read after 19 hours
[21] = tested on: β-alanine aminopeptidase; assay: Vitek 2 cards, broth with β-Alanyl p-nitroanilide; details: Proteus mirabilis; 2 strains tested; read after 19 hours
[22] = tested on: β-alanine aminopeptidase; assay: Vitek 2 cards, broth with β-Alanyl p-nitroanilide; details: Chryseobacterium meningosepticum; 1 strain tested; read after 19 hours
[23] = tested on: β-alanine aminopeptidase; assay: Vitek 2 cards, broth with β-Alanyl p-nitroanilide; details: Acinetobacter baumannii; 2 strains tested; read after 19 hours
[24] = tested on: β-alanine aminopeptidase; assay: Vitek 2 cards, broth with β-Alanyl p-nitroanilide; details: Pseudomonas aeruginosa; 4 strains tested; read after 19 hours
[25] = tested on: β-alanine aminopeptidase; assay: Vitek 2 cards, broth with β-Alanyl p-nitroanilide; assay type: cell-based; details: Myroïdes spp.; 1 strain tested; read after 19 hours
[26] = tested on: β-alanine aminopeptidase; assay: Vitek 2 cards, broth with β-Alanyl p-nitroanilide; details: Klebsiella pneumoniae; 2 strains tested; read after 19 hours
[27] = tested on: β-alanine aminopeptidase; assay: Vitek 2 cards, broth with β-Alanyl p-nitroanilide; details: Enterobacter intermedius; 1 strain tested; read after 19 hours
[28] = tested on: β-alanine aminopeptidase; assay: Vitek 2 cards, broth with β-Alanyl p-nitroanilide; details: Proteus vulgaris; 1 strain tested; read after 19 hours
[29] = tested on: β-alanine aminopeptidase; assay: Vitek 2 cards, broth with β-Alanyl p-nitroanilide; details: Serratia marcescens; 1 strain tested; read after 19 hours
[30] = tested on: β-alanine aminopeptidase; assay: Vitek 2 cards, broth with β-Alanyl p-nitroanilide; details: Pseudomonas putida; 1 strain tested; read after 19 hours
[31] = tested on: β-alanine aminopeptidase; assay: Vitek 2 cards, broth with β-Alanyl p-nitroanilide; details: Escherichia coli; 2 strains tested; read after 19 hours
[32] = tested on: β-alanine aminopeptidase; assay: Vitek 2 cards, broth with β-Alanyl p-nitroanilide; details: Shewanella algae; 1 strain tested; read after 19 hours
[33] = tested on: β-alanine aminopeptidase; assay: Vitek 2 cards, broth with β-Alanyl p-nitroanilide; details: Enterobacter cloacae; 2 strains tested; read after 19 hours
[34] = tested on: β-alanine aminopeptidase; assay: Vitek 2 cards, broth with β-Alanyl p-nitroanilide; details: Burkholderia vesicularis; 1 strain tested; read after 19 hours
[35] = tested on: β-alanine aminopeptidase; assay: Vitek 2 cards, broth with β-Alanyl p-nitroanilide; details: Citrobacter koseri; 1 strain tested; read after 19 hours
[36] = tested on: β-alanine aminopeptidase; assay: Vitek 2 cards, broth with β-Alanyl p-nitroanilide; details: Brevundimonas diminuta; 1 strain tested; read after 19 hours
[37] = tested on: β-alanine aminopeptidase; assay: Vitek 2 cards, broth with β-Alanyl p-nitroanilide; details: Ralstonia pickettii; 1 strain tested; read after 19 hours
[38] = tested on: β-alanine aminopeptidase; assay: Vitek 2 cards, broth with β-Alanyl p-nitroanilide; details: Klebsiella oxytoca; 2 strains tested; read after 19 hours
[39] = tested on: β-alanine aminopeptidase; assay: Vitek 2 cards, broth with β-Alanyl p-nitroanilide; details: Enterobacter aerogenes; 2 strains tested; read after 19 hours
[40] = tested on: β-alanine aminopeptidase; assay: Vitek 2 cards, broth with β-Alanyl p-nitroanilide; details: Citrobacter amalonaticus; 2 strains tested; read after 19 hours
[41] = tested on: β-alanine aminopeptidase; assay: Vitek 2 cards, broth with β-Alanyl p-nitroanilide; details: Serratia liquefaciens; 1 strain tested; read after 19 hours
[42] = tested on: β-alanine aminopeptidase; assay: Vitek 2 cards, broth with β-Alanyl p-nitroanilide; details: Achromobacter xylosoxydans; 2 strains tested; read after 19 hours
[43] = tested on: β-alanine aminopeptidase; assay: Vitek 2 cards, broth with β-Alanyl p-nitroanilide; details: Sphingomonas paucimobilis; 2 strains tested; read after 19 hours
[44] = tested on: β-alanine aminopeptidase; assay: Vitek 2 cards, broth with β-Alanyl p-nitroanilide; details: Vibrio vulnificus; 1 strain tested; read after 19 hours
[45] = Chromobacterium violaceum, 11 strains tested
[46] = Ochrobactrum anthropi, 11 strains tested
[47] = Ralstonia pickettii, 10 strains tested
[48] = Pseudomonas mendocina, 10 strains tested

Cc1cc(=O)oc2cc(NC(=O)CCN)ccc12
percentage of positive results ([1]; Chromobacterium violaceum strains): 10% | Borderline results [1, 45]: 1 | Number of negative results [1, 45]: 9 | Number of positive results [1, 45]: 1 | percentage of positive results ([2]; Ochrobactrum anthropi strains): 100% | Borderline results [2, 46]: 0 | Number of negative results [2, 46]: 0 | Number of positive results [2, 46]: 11 | Borderline results [3]: 0 | Number of negative results [3]: 10 | Number of positive results [3]: 0 | Borderline results [4]: 0 | Number of negative results [4]: 10 | Number of positive results [4]: 0 | Borderline results [5]: 0 | Number of negative results [5]: 10 | Number of positive results [5]: 0 | percentage of positive results ([6]; Ralstonia pickettii strains): 20% | Borderline results [6, 47]: 0 | Number of negative results [6, 47]: 8 | Number of positive results [6, 47]: 2 | percentage of positive results ([7]; Pseudomonas mendocina strains): 100% | Borderline results [7, 48]: 0 | Number of negative results [7, 48]: 0 | Number of positive results [7, 48]: 10 | percentage of positive results ([8]; Pseudomonas aeruginosa strains): 97.8% | Borderline results ([8]; Pseudomonas aeruginosa): 1 | Number of negative results ([8]; Pseudomonas aeruginosa): 2 | Number of positive results ([8]; Pseudomonas aeruginosa): 134 | Borderline results [9]: 0 | Number of negative results [9]: 10 | Number of positive results [9]: 0 | Borderline results [10]: 0 | Number of negative results [10]: 10 | Number of positive results [10]: 0 | Borderline results [11]: 0 | Number of negative results [11]: 10 | Number of positive results [11]: 0 | Borderline results [12]: 0 | Number of negative results [12]: 10 | Number of positive results [12]: 0

CNc1ccc(N(C)C(=O)CCN)cc1 [β-Alanyl-N,N′-dimethyl-p-phenylene-diamine]
color of the colonies ([13]; Pseudomonas aeruginosa): Blue colonies with a blue halo | color of the colonies ([13]; Pseudomonas mendocina): purple colonies with a blue halo

NCCC(=O)Nc1ccc([N+](=O)[O-])cc1 [β-Alanyl-p-nitroanilide, β-Alanine p-nitroanilide]
Number of negative results [14]: 2 | Number positive results [14]: 0 | Number of negative results [15]: 1 | Number positive results [15]: 0 | Number of negative results [16]: 2 | Number positive results [16]: 0 | Number of negative results [17]: 3 | Number positive results [17]: 0 | Number of negative results [18]: 2 | Number positive results [18]: 0 | Number of negative results [19]: 2 | Number positive results [19]: 0 | Number of negative results [20]: 1 | Number positive results [20]: 0 | Number of negative results [21]: 2 | Number positive results [21]: 0 | Number of negative results [22]: 1 | Number positive results [22]: 0 | Number of negative results [23]: 2 | Number positive results [23]: 0 | Number of negative results [24]: 0 | Number positive results [24]: 4 | Number of negative results [25]: 1 | Number positive results [25]: 0 | Number of negative results [26]: 2 | Number positive results [26]: 0 | Number of negative results [27]: 1 | Number positive results [27]: 0 | Number of negative results [28]: 1 | Number positive results [28]: 0 | Number of negative results [29]: 0 | Number positive results [29]: 1 | Number of negative results [30]: 1 | Number positive results [30]: 0 | Number of negative results [31]: 2 | Number positive results [31]: 0 | Number of negative results [32]: 1 | Number positive results [32]: 0 | Number of negative results [33]: 2 | Number positive results [33]: 0 | Number of negative results [34]: 1 | Number positive results [34]: 0 | Number of negative results [35]: 1 | Number positive results [35]: 0 | Number of negative results [36]: 1 | Number positive results [36]: 0 | Number of negative results [37]: 1 | Number positive results [37]: 0 | Number of negative results [38]: 2 | Number positive results [38]: 0 | Number of negative results [39]: 2 | Number positive results [39]: 0 | Number of negative results [40]: 2 | Number positive results [40]: 0 | Number of negative results [41]: 0 | Number positive results [41]: 1 | Number of negative results [42]: 2 | Number positive results [42]: 0 | Number of negative results [43]: 2 | Number positive results [43]: 0 | Number of negative results [44]: 1 | Number positive results [44]: 0
